Legend:
Design in all cases: scale not given: the % may be the effect or the level left
[1] = target: Serine/threonine-protein kinase pim-1 (Homo sapiens) (UniProt P11309); experiment: Inhibition of DNA-tagged human PIM1 assessed as percent of control at 50000 nM by qPCR analysis relative to control
[2] = target: Death-associated protein kinase 2 (Homo sapiens) (UniProt Q9UIK4); experiment: Inhibition of DNA-tagged human DAPK2 assessed as percent of control at 50000 nM by qPCR analysis relative to control
[3] = target: Mast/stem cell growth factor receptor Kit (Homo sapiens) (UniProt P10721); experiment: Inhibition of DNA-tagged human KIT assessed as percent of control at 50000 nM by qPCR analysis relative to control
[4] = target: Mitogen-activated protein kinase kinase kinase 7 (Homo sapiens) (UniProt O43318); experiment: Inhibition of DNA-tagged human TAK1 assessed as percent of control at 50000 nM by qPCR analysis relative to control
[5] = target: Vascular endothelial growth factor receptor 3 (Homo sapiens) (UniProt P35916); experiment: Inhibition of DNA-tagged human FLT4 assessed as percent of control at 50000 nM by qPCR analysis relative to control
[6] = target: Microtubule-associated serine/threonine-protein kinase 1 (Homo sapiens) (UniProt Q9Y2H9); experiment: Inhibition of DNA-tagged human MAST1 assessed as percent of control at 50000 nM by qPCR analysis relative to control
[7] = target: Phosphatidylinositol 4-phosphate 5-kinase type-1 alpha (Homo sapiens) (UniProt Q99755); experiment: Inhibition of DNA-tagged human PIP5K1A assessed as percent of control at 50000 nM by qPCR analysis relative to control
[8] = target: Dual specificity testis-specific protein kinase 1 (Homo sapiens) (UniProt Q15569); experiment: Inhibition of DNA-tagged human TESK1 assessed as percent of control at 50000 nM by qPCR analysis relative to control
[9] = target: Tyrosine-protein kinase JAK1 (Homo sapiens) (UniProt P23458); experiment: Inhibition of DNA-tagged human JAK1 JH1 catalytic domain assessed as percent of control at 50000 nM by qPCR analysis relative to control
[10] = target: Serine/threonine-protein kinase 38-like (Homo sapiens) (UniProt Q9Y2H1); experiment: Inhibition of DNA-tagged human NDR2 assessed as percent of control at 50000 nM by qPCR analysis relative to control
[11] = target: cGMP-dependent protein kinase 1 (Homo sapiens) (UniProt Q13976); experiment: Inhibition of DNA-tagged human PRKG1 assessed as percent of control at 50000 nM by qPCR analysis relative to control
[12] = target: Serine/threonine-protein kinase Nek3 (Homo sapiens) (UniProt P51956); experiment: Inhibition of DNA-tagged human NEK3 assessed as percent of control at 50000 nM by qPCR analysis relative to control
[13] = target: Serine/threonine-protein kinase PAK 5 (Homo sapiens) (UniProt Q9P286); experiment: Inhibition of DNA-tagged human PAK7 assessed as percent of control at 50000 nM by qPCR analysis relative to control
[14] = target: Dual serine/threonine and tyrosine protein kinase (Homo sapiens) (UniProt Q6XUX3); experiment: Inhibition of DNA-tagged human RIPK5 assessed as percent of control at 50000 nM by qPCR analysis relative to control
[15] = test system: Epidermal growth factor receptor (Homo sapiens), P00533 [UNDEFINED MUTATION]; experiment: Inhibition of DNA-tagged human EGFR E746-A750del mutant assessed as percent of control at 50000 nM by qPCR analysis relative to control
[16] = target: Serine/threonine-protein kinase PRP4 homolog (Homo sapiens) (UniProt Q13523); experiment: Inhibition of DNA-tagged human PRP4 assessed as percent of control at 50000 nM by qPCR analysis relative to control
[17] = target: Tyrosine-protein kinase JAK1 (Homo sapiens) (UniProt P23458); experiment: Inhibition of DNA-tagged human JAK1 JH2 pseudokinase domain assessed as percent of control at 50000 nM by qPCR analysis relative to control
[18] = target: Dual specificity mitogen-activated protein kinase kinase 3 (Homo sapiens) (UniProt P46734); experiment: Inhibition of DNA-tagged human MEK3 assessed as percent of control at 50000 nM by qPCR analysis relative to control
[19] = target: Serine/threonine-protein kinase D1 (Homo sapiens) (UniProt Q15139); experiment: Inhibition of DNA-tagged human PRKD1 assessed as percent of control at 50000 nM by qPCR analysis relative to control
[20] = target: Serine/threonine-protein kinase Nek2 (Homo sapiens) (UniProt P51955); experiment: Inhibition of DNA-tagged human NEK2 assessed as percent of control at 50000 nM by qPCR analysis relative to control
[21] = target: Serine/threonine-protein kinase mTOR (Homo sapiens) (UniProt P42345); experiment: Inhibition of DNA-tagged human MTOR assessed as percent of control at 50000 nM by qPCR analysis relative to control
[22] = test system: Tyrosine-protein kinase ABL1 (Homo sapiens), P00519 [UNDEFINED MUTATION]; experiment: Inhibition of DNA-tagged phosphorylated human ABL1 […] mutant assessed as percent of control at 50000 nM by qPCR analysis relative to control
[23] = target: Rhodopsin kinase GRK7 (Homo sapiens) (UniProt Q8WTQ7); experiment: Inhibition of DNA-tagged human GRK7 assessed as percent of control at 50000 nM by qPCR analysis relative to control
[24] = target: Ribosomal protein S6 kinase alpha-2 (Homo sapiens) (UniProt Q15349); experiment: Inhibition of DNA-tagged human C-terminal RSK3 kinase domain 2 assessed as percent of control at 50000 nM by qPCR analysis relative to control
[25] = target: Phosphatidylinositol 4,5-bisphosphate 3-kinase catalytic subunit gamma isoform (Homo sapiens) (UniProt P48736); experiment: Inhibition of DNA-tagged human PIK3CG assessed as percent of control at 50000 nM by qPCR analysis relative to control
[26] = target: CDK4/Cyclin D3 (Homo sapiens) (UniProt P11802+P30281); experiment: Inhibition of DNA-tagged human CDK4/cyclin D3 assessed as percent of control at 50000 nM by qPCR analysis relative to control; type: protein-complex assay
[27] = target: Cyclin-dependent kinase-like 2 (Homo sapiens) (UniProt Q92772); experiment: Inhibition of DNA-tagged human CDKL2 assessed as percent of control at 50000 nM by qPCR analysis relative to control
[28] = target: Megakaryocyte-associated tyrosine-protein kinase (Homo sapiens) (UniProt P42679); experiment: Inhibition of DNA-tagged human CTK assessed as percent of control at 50000 nM by qPCR analysis relative to control
[29] = target: Dual specificity mitogen-activated protein kinase kinase 6 (Homo sapiens) (UniProt P52564); experiment: Inhibition of DNA-tagged human MEK6 assessed as percent of control at 50000 nM by qPCR analysis relative to control

Tyrosine-protein kinase JAK1 (Homo sapiens), sequence (P23458 whole entry, the tested form may be a part): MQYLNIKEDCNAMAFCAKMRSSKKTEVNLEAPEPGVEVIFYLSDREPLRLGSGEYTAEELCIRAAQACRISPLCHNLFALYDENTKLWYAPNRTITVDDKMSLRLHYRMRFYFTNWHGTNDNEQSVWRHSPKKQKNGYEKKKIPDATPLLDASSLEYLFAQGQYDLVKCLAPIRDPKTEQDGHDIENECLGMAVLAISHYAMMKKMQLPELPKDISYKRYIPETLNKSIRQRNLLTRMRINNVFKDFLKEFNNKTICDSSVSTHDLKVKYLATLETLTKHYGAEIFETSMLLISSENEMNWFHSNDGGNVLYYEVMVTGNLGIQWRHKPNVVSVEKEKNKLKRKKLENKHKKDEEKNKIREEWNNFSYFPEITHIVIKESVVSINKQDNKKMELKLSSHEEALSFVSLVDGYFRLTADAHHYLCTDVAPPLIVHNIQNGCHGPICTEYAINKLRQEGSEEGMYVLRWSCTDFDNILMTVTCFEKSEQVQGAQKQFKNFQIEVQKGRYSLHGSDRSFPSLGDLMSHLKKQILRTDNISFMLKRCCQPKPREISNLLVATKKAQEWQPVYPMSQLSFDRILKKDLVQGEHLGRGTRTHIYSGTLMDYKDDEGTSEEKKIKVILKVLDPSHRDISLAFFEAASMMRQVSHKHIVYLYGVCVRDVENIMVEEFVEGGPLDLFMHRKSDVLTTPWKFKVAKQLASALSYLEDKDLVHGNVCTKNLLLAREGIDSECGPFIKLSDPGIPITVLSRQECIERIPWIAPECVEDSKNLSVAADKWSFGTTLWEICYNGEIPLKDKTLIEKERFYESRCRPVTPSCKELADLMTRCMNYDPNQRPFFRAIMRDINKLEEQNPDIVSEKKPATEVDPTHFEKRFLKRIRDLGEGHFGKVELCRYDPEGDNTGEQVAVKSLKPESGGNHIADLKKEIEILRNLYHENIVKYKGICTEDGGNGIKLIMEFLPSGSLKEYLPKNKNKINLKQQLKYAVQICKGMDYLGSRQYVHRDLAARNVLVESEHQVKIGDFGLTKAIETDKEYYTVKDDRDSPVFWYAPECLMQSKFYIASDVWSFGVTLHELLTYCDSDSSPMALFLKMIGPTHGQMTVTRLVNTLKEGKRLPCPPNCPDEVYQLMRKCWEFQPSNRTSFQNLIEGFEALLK
Mitogen-activated protein kinase kinase kinase 7 (Homo sapiens), sequence (O43318 whole entry, looked up): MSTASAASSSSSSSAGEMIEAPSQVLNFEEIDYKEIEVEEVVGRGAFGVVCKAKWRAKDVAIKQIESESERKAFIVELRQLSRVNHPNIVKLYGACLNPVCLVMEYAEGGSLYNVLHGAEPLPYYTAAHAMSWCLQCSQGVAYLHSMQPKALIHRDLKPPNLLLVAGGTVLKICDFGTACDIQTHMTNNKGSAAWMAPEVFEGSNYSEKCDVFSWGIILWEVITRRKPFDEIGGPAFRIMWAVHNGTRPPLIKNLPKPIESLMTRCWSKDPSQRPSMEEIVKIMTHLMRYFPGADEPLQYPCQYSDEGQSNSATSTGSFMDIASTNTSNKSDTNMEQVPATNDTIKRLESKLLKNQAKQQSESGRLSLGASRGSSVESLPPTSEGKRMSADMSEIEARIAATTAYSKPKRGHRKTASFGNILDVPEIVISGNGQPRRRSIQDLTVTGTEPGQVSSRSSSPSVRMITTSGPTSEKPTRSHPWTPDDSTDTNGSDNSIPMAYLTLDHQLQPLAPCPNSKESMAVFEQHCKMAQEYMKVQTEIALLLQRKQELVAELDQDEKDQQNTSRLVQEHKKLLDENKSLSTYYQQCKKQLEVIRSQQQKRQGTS
Phosphatidylinositol 4,5-bisphosphate 3-kinase catalytic subunit gamma isoform (Homo sapiens), sequence (P48736 whole entry, looked up, canonical isoform): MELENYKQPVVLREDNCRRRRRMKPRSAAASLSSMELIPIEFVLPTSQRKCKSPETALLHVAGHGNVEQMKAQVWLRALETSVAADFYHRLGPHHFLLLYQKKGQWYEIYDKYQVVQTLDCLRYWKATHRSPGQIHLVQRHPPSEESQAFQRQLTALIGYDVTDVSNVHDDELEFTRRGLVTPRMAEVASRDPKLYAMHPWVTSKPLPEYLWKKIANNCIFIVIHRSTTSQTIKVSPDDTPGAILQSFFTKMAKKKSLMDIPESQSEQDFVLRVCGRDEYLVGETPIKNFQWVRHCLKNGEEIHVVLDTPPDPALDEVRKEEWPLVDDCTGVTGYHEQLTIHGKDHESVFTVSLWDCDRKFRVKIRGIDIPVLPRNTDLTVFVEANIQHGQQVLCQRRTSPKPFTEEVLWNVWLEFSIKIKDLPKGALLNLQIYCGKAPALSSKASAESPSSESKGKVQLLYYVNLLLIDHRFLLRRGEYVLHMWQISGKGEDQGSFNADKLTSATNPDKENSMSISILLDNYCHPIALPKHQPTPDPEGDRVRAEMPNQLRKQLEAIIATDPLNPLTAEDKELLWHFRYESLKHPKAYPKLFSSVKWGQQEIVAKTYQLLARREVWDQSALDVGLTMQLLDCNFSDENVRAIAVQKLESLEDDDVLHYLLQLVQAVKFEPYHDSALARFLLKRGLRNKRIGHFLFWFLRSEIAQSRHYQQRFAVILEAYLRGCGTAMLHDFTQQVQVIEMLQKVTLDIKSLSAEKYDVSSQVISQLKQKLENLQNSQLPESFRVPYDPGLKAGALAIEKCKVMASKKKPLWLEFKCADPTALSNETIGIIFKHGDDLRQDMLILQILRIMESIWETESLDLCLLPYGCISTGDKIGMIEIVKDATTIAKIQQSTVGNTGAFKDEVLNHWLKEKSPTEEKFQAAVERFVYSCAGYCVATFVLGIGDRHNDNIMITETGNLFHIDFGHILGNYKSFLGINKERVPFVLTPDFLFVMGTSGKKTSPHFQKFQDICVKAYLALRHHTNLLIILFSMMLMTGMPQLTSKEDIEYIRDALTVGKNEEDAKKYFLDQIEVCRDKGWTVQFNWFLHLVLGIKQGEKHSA
Serine/threonine-protein kinase Nek2 (Homo sapiens), sequence (P51955 whole entry): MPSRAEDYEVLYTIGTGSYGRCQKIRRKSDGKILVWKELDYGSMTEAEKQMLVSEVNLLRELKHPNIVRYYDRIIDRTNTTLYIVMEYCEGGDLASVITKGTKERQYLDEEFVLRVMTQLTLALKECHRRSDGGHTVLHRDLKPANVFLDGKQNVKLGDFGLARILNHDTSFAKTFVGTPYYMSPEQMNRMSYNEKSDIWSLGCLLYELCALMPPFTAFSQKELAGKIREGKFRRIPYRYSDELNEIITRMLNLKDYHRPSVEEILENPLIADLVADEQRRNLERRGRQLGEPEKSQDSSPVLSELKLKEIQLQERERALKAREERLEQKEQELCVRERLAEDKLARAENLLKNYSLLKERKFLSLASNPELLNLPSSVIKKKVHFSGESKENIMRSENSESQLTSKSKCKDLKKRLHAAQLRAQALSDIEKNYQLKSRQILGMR
Mast/stem cell growth factor receptor Kit (Homo sapiens), sequence (P10721 whole entry): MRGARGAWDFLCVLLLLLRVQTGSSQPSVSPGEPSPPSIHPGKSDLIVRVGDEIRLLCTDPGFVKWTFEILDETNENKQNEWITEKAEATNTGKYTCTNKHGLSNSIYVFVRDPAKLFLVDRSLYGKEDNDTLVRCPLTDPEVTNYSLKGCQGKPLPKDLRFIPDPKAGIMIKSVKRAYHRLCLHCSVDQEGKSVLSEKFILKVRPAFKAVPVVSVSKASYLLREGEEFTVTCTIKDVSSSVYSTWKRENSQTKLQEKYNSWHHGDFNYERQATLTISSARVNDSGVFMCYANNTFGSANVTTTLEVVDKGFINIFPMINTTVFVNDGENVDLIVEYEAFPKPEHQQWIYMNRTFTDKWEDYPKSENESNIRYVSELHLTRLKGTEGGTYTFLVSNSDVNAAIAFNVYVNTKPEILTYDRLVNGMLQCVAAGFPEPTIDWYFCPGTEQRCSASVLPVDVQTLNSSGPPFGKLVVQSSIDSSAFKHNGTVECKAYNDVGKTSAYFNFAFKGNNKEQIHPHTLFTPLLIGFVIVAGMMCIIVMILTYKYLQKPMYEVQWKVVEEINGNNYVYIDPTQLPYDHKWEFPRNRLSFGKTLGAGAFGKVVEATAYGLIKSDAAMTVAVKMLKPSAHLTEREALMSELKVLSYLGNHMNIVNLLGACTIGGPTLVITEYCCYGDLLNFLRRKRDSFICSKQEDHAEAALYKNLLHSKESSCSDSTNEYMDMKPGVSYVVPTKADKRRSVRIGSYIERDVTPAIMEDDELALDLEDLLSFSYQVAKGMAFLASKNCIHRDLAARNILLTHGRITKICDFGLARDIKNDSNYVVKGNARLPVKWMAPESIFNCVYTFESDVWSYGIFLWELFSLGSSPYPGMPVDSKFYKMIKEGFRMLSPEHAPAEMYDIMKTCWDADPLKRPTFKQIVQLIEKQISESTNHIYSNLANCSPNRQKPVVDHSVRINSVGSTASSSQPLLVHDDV
Cyclin-dependent kinase-like 2 (Homo sapiens), sequence (Q92772 whole entry): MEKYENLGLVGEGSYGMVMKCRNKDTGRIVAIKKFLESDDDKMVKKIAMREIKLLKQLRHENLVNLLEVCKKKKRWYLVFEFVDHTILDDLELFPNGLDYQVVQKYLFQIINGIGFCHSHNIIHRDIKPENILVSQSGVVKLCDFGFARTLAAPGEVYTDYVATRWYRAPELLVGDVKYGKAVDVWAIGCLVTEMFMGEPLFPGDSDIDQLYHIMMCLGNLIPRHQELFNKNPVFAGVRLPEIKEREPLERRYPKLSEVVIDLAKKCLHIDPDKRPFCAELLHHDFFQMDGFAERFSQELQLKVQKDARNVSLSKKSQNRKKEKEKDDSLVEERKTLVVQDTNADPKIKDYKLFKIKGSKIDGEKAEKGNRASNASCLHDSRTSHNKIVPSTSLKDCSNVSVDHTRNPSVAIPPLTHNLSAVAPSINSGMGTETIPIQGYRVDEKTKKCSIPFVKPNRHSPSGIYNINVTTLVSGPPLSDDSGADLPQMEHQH

## CN1C(=O)/C(=C2/C(=O)Nc3ccccc32)c2ccccc21
[1]
  Activity: 83%
[2]
  Activity: 85%
[3]
  Activity: 94%
[4]
  Activity: 78%
[5]
  Activity: 100%
[6]
  Activity: 85%
[7]
  Activity: 100%
[8]
  Activity: 100%
[9]
  Activity: 94%
[10]
  Activity: 100%
[11]
  Activity: 95%
[12]
  Activity: 92%
[13]
  Activity: 98%
[14]
  Activity: 92%
[15]
  Activity: 83%
[16]
  Activity: 89%
[17]
  Activity: 100%
[18]
  Activity: 72%
[19]
  Activity: 97%
[20]
  Activity: 100%
[21]
  Activity: 100%
[22]
  Activity: 94%
[23]
  Activity: 100%
[24]
  Activity: 92%
[25]
  Activity: 100%
[26]
  Activity: 100%
[27]
  Activity: 100%
[28]
  Activity: 56%
[29]
  Activity: 100%

Reference: ChEMBL document CHEMBL4804284
